Assay results as given in US20180338980A1, “AROMATIC SULFONAMIDE DERIVATIVES” (BAYER PHARMA AKTIENGESELLSCHAFT, priority 2015, published 2018).

What was measured:
[1] = target: T1, P2X4 (Homo sapiens, UniProt Q99571); assay: Assay B: human P2X4 receptor cell line, mitochondrial photina luminescence (agonist Bz-ATP at EC50); format: cell-based; set-up: host or cells: HEK 293 (recombinant, constitutively expressing; with mitochondrial photina in Assay B); settings: HEK human P2X4 cell line, photina luminescence, agonist Bz-ATP at EC50, average; for Emax: read-out: human P2X4 Assay B avg Efficacy
T1 sequence (Q99571 1-388): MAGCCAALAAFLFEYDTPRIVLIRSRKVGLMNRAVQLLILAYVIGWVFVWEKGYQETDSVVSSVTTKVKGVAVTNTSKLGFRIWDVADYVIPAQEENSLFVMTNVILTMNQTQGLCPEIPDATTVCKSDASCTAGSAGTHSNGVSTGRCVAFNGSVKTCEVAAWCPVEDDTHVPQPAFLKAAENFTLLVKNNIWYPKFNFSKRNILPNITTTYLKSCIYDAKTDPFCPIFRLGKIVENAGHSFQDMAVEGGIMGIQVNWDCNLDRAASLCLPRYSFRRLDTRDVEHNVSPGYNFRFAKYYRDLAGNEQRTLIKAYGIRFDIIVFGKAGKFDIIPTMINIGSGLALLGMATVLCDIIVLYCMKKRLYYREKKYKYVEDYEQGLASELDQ
Outline: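 Recombinant cell line constitutively expressing human P2X4 and mitochondrial photina photoprotein, reconstituted with coelenterazine. Receptor stimulated with Bz-ATP at EC50; calcium influx read immediately as luminescence.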

[2] = target: T1, P2X4; assay: Assay A: human P2X4 receptor cell line, FLIPR calcium assay (Fluo-8, agonist Bz-ATP at EC80); format: cell-based; set-up: host or cells: HEK 293 (recombinant, constitutively expressing; with mitochondrial photina in Assay B); settings: HEK human P2X4 cells, Fluo-8 FLIPR; for IC50: Bz-ATP at EC80, average values; for Emax: percentage of maximal inhibition, read-out: human P2X4 Assay A avg Efficacy
Description: A fluorescent imaging plate reader (FLEX/FLIPR station; Molecular Devices) was used to monitor intracellular calcium levels using the calcium-chelating dye Fluo-8 (Molecular Probes). […] Cells expressing purinergic receptors human P2X4 (HEK human P2X4: PerkinElmer, Product No.: AX-015-PCF) were plated at a density of 20,000 cells/well in poly-D-lysine-coated 384-well plates approximately 20 hours before beginning the assay. On the day of the assay, the medium was removed and 30 μl of dye buffer (Hank's balanced salt solution, 10 mM HEPES, 1.8 mM CaCl2), 1 mM MgCl2, 2 mM probenecid, 5 mM D-glucose monohydrate, 5 μM Fluo-8, pH=7.4) was added for 30 min at […] and 5% CO2. The antagonist in probenecid buffer (Hank's balanced salt solution, 10 mM HEPES, 1.8 mM CaCl2, 1 mM MgCl2, 2 mM probenecid, 5 mM D-glucose monohydrate, pH=7.4) was added in a volume of 10 μl and allowed to incubate for 30 min at room temperature. The final assay DMSO concentration is 0.5%. The agonist, Bz-ATP, is added in a volume of 10 μl at a concentration representing the EC80 value. The fluorescence was measured for an interval of 120 sec at 2 sec intervals and analyzed based on the increase in peak relative fluorescence units (RFU) compared to the basal fluorescence. Peak fluorescence was used to determine the response to agonist obtained at each concentration of antagonist by the following equation:
% Response=100*(RFU(drug)−RFU(control))/(RFU(DMSO)−RFU(control))
The compounds were tested in triplicates per plate and mean values were plotted in Excel XLFit to determine IC50 values, percentage of maximal inhibition and the Hill coefficients.

Row | Structure (SMILES) | IC50 [1] [nM] | Emax [1] [%] | IC50 [2] [nM] | Emax [2] [%]
1 | CC(Oc1ccc(NC(=O)Cc2ccccc2Cl)cc1S(N)(=O)=O)c1ccccc1 (single isomer, unassigned) [Example 148A, 2-(2-Chlorophenyl)-N-[4-(1-phenylethoxy)-3-sulfamoylphenyl]acetamide] | 143 | 68 | 74 | 92
2 | CN(C)c1cccc(Oc2ccc(NC(=O)Cc3ccccc3Cl)cc2S(N)(=O)=O)c1 [Example 002, 2-(2-Chlorophenyl)-N-{4-[3-(dimethylamino)phenoxy]-3-sulfamoylphenyl}acetamide] | 79 | 81 | 29 | 96
3 | CC(C)c1cccc(Oc2ccc(NC(=O)Cc3ccccc3Cl)cc2S(N)(=O)=O)c1 [Example 004, 2-(2-Chlorophenyl)-N-[4-(3-isopropylphenoxy)-3-sulfamoylphenyl]acetamide] | 95 | 68 | 149 | 90
4 | NS(=O)(=O)c1cc(NC(=O)Cc2ccccc2Cl)ccc1Oc1cccc(C(F)(F)F)c1 [Example 005, 2-(2-Chlorophenyl)-N-{3-sulfamoyl-4-[3-(trifluoromethyl)phenoxy]phenyl}acetamide] | 90 | 89 | 77 | 94
5 | NS(=O)(=O)c1cc(NC(=O)Cc2ccccc2Cl)ccc1Oc1cccc(OC(F)(F)F)c1 [Example 006, 2-(2-Chlorophenyl)-N-{3-sulfamoyl-4-[3-(trifluoromethoxy)phenoxy]phenyl}acetamide] | 73 | 108 | 99 | 87
6 | CC(=O)c1cccc(Oc2ccc(NC(=O)Cc3ccccc3Cl)cc2S(N)(=O)=O)c1 [Example 007, N-[4-(3-Acetylphenoxy)-3-sulfamoylphenyl]-2-(2-chlorophenyl)acetamide] | 122 | 104 | 16 | 93
7 | NS(=O)(=O)c1cc(NC(=O)Cc2ccccc2Cl)ccc1Oc1ccc2c(c1)OCO2 [Example 008, N-[4-(1,3-Benzodioxol-5-yloxy)-3-sulfamoylphenyl]-2-(2-chlorophenyl)acetamide] | 73 | 91 | 44 | 88
8 | NS(=O)(=O)c1cc(NC(=O)Cc2ccccc2Cl)ccc1Oc1ccccc1F [Example 010, 2-(2-Chlorophenyl)-N-[4-(2-fluorophenoxy)-3-sulfamoylphenyl]acetamide] | 73 | 76 | 27 | 90
9 | CS(=O)(=O)c1cccc(Oc2ccc(NC(=O)Cc3ccccc3Cl)cc2S(N)(=O)=O)c1 [Example 016, 2-(2-Chlorophenyl)-N-{4-[3-(methylsulfonyl)phenoxy]-3-sulfamoylphenyl}acetamide] | 112 | 72 | 96 | 81
10 | NS(=O)(=O)c1cc(NC(=O)Cc2ccccc2Cl)ccc1Oc1cccc(-n2cnnc2)c1 [Example 020, 2-(2-Chlorophenyl)-N-{3-sulfamoyl-4-[3-(4H-1,2,4-triazol-4-yl)phenoxy]phenyl}acetamide] |  | 96 |  | 90
11 | NS(=O)(=O)c1cc(NC(=O)Cc2ccccc2Cl)ccc1Oc1cccc(OC(F)F)c1 [Example 024, 2-(2-Chlorophenyl)-N-{4-[3-(difluoromethoxy)phenoxy]-3-sulfamoylphenyl}acetamide] | 32 | 57 | 114 | 82
12 | NS(=O)(=O)c1cc(NC(=O)Cc2ccccc2Cl)ccc1Oc1cccc(N2CCOCC2)c1 [Example 026, 2-(2-Chlorophenyl)-N-{4-[3-(morpholin-4-yl)phenoxy]-3-sulfamoylphenyl}acetamide] | 82 | 71 | 21 | 95
13 | COc1ccccc1Oc1ccc(NC(=O)Cc2ccccc2Cl)cc1S(N)(=O)=O [Example 032, 2-(2-Chlorophenyl)-N-[4-(2-methoxyphenoxy)-3-sulfamoylphenyl]acetamide] | 57 | 82 | 14 | 100
14 | NS(=O)(=O)c1cc(NC(=O)Cc2ccccc2Cl)ccc1Oc1cccc(C(=O)NC2CC2)c1 [Example 037, 3-(4-{[(2-Chlorophenyl)acetyl]amino}-2-sulfamoylphenoxy)-N-cyclopropylbenzamide] | 188 | 56 | 63 | 70
15 | NS(=O)(=O)c1cc(NC(=O)Cc2ccccc2Cl)ccc1Oc1ccc(N2CCCC2=O)cc1 [Example 043, 2-(2-Chlorophenyl)-N-{4-[4-(2-oxopyrrolidin-1-yl)phenoxy]-3-sulfamoylphenyl}acetamide] | 671 | 68 | 515 | 85
16 | NS(=O)(=O)c1cc(NC(=O)Cc2ccccc2Cl)ccc1Oc1cccc(N2CCCC2=O)c1 [Example 050, 2-(2-Chlorophenyl)-N-{4-[3-(2-oxopyrrolidin-1-yl)phenoxy]-3-sulfamoylphenyl}acetamide] | 112 | 87 | 5 | 94

The next lines start with the values.

Row | IC50 [1] [nM] | Emax [1] [%] | IC50 [2] [nM] | Emax [2] [%] | Structure (SMILES)
17 | 43 | 67 | 41 | 85 | NS(=O)(=O)c1cc(NC(=O)Cc2ccccc2Cl)ccc1Oc1cccc(F)c1 [Example 011, 2-(2-Chlorophenyl)-N-[4-(3-fluorophenoxy)-3-sulfamoylphenyl]acetamide]
18 | 47 | 70 | 9 | 93 | Cc1cccc(Oc2ccc(NC(=O)Cc3ccccc3Cl)cc2S(N)(=O)=O)c1 [Example 018, 2-(2-Chlorophenyl)-N-[4-(3-methylphenoxy)-3-sulfamoylphenyl]acetamide]
19 |  | 54 |  | 87 | COc1cccc(Oc2ccc(NC(=O)Cc3ccccc3Cl)cc2S(N)(=O)=O)c1 [Example 022, 2-(2-Chlorophenyl)-N-[4-(3-methoxyphenoxy)-3-sulfamoylphenyl]acetamide]
20 |  | 79 |  | 75 | NS(=O)(=O)c1cc(NC(=O)Cc2ccccc2Cl)ccc1Oc1cccnc1 [Example 028, 2-(2-Chlorophenyl)-N-[4-(pyridin-3-yloxy)-3-sulfamoylphenyl]acetamide]
21 | 122 | 71 | 24 | 76 | NS(=O)(=O)c1cc(NC(=O)Cc2ccccc2Cl)ccc1Oc1cccc(C(F)F)c1 [Example 031, 2-(2-Chlorophenyl)-N-{4-[3-(difluoromethyl)phenoxy]-3-sulfamoylphenyl}acetamide]
22 | 140 | 65 | 7 | 89 | NS(=O)(=O)c1cc(NC(=O)Cc2ccccc2Cl)ccc1Oc1cc(Cl)ccn1 [Example 039, 2-(2-chlorophenyl)-N-{4-[(4-chloropyridin-2-yl)oxy]-3-sulfamoylphenyl}acetamide]
23 | 862 | 57 | 7 | 69 | N#Cc1cc(Oc2ccc(NC(=O)Cc3ccccc3Cl)cc2S(N)(=O)=O)ccc1F [Example 047, 2-(2-Chlorophenyl)-N-[4-(3-cyano-4-fluorophenoxy)-3-sulfamoylphenyl]acetamide]
24 |  |  | 59 | 78 | NS(=O)(=O)c1cc(NC(=O)Cc2cc(F)ccc2Cl)cnc1Oc1cccc(Cl)c1 [Example 296, 2-(2-Chloro-5-fluorophenyl)-N-[6-(3-chlorophenoxy)-5-sulfamoylpyridin-3-yl]-acetamide]
